Laboratory results published in patent publication US8349880B2, “Bicyclic compounds for the reduction of beta-amyloid production” (Bristol-Myers Squibb Company, priority 2009, dated 2013).

system: Aβ1-42 production; assay: Cellular assay for inhibition of Aβ1-42 production (H4 APP751 SWE clone 8.20); format: cell-based; conditions: 19 h, H4 APP751 SWE clone 8.20 cells, 19 h incubation; read-out: Activity Rating (Aβ42 cellular IC50, given as a number)
Summary of the method: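 H4 cells stably expressing APP751 with the Swedish mutation (1.5×10^4 cells/well) incubated with compound for 19 h at 37° C in DMEM with 0.0125% BSA. Secreted Aβ42 measured overnight at 4° C by HTRF-type pairing of 565 (Aβ42 neoepitope) and 26D6 (N-terminal) antibodies. IC50 from curve fit.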

| IC50 [nM] | SMILES |
| --- | --- |
| 2 | COc1cc(Nc2nc3n(n2)CC[C@](C)(O)C[C@@H]3c2ccc(F)cc2)ccc1-n1cnc(Cl)c1 (single isomer, unassigned) [Example 149, 2,2,2-trifluoroacetate] |
| 1000 | COc1cc(Nc2nc3n(n2)CCCCC3c2ccc(S(C)(=O)=O)cc2)ccc1-n1cnc(C)n1 (centres unmarked) [Example 129, N-(3-methoxy-4-(3-methyl-1H-1,2,4-triazol-1-yl)phenyl)-9-(4-(methylsulfonyl)phenyl)-6,7,8,9-tetrahydro-5H-[1,2,4]-triazolo[1,5-a]azepin-2-amine 2,2,2-trifluoroacetate] |
| 47 | COc1cc(Nc2nc3n(n2)CCCC[C@@H]3c2ccc(F)cc2)c(F)cc1-n1cnc(C)n1 (single isomer, unassigned) [Example 30] |
| 6 | COc1cc(Nc2nc3n(n2)CCCCC3c2ccc(F)cc2)cnc1-n1cnc(Cl)c1 (centres unmarked) [Example 86, N-(6-(4-chloro-1H-imidazol-1-yl)-5-methoxypyridin-3-yl)-9-(4-fluorophenyl)-6,7,8,9-tetrahydro-5H-[1,2,4]triazolo[1,5-a]azepin-2-amine] |
| 16 | Cc1ncn(-c2ccc(Nc3nc4n(n3)CCC3(CC4c4ccc(F)cc4)OCCO3)cc2F)n1 (centres unmarked) [Example 158, N-(3-fluoro-4-(3-methyl-1H-1,2,4-triazol-1-yl)phenyl)-9-(4-fluorophenyl)-5,6,8,9-tetrahydrospiro[[1,2,4]triazolo[1,5-a]azepine-7,2′-[1,3]dioxolan]-2-amine 2,2,2-trifluoroacetate] |
| 44 | COc1cc(Nc2nc3n(n2)CCCCC3c2ccc(OC(F)(F)F)cc2)cc(F)c1-n1cnc(C)n1 (centres unmarked) [Example 167, N-(3-fluoro-5-methoxy-4-(3-methyl-1H-1,2,4-triazol-1-yl)phenyl)-9-(4-(trifluoromethoxy)phenyl)-6,7,8,9-tetrahydro-5H-[1,2,4]triazolo[1,5-a]azepin-2-amine] |

same assay, conditions: 19 h, H4 APP751 SWE clone 8.20 cells, 19 h incubation; read-out: Activity Rating (based on Aβ42 cellular IC50 values)

| IC50 [nM] | SMILES |
| --- | --- |
| 10 to 100 | COc1cc(Nc2nc3c(s2)CCCC3c2ccccc2)ccc1-n1cnc(C)c1 (centres unmarked) [Example 71, N-(3-methoxy-4-(4-methyl-1H-imidazol-1-yl)phenyl)-4-phenyl-4,5,6,7-tetrahydrobenzo[d]thiazol-2-amine 2,2,2-trifluoroacetate] |
| < 10 | COc1cc(Nc2nc3n(n2)CCCC[C@@H]3c2cc(F)c(F)c(F)c2)ccc1-n1cnc(Cl)c1 (single isomer, unassigned) [Example 52] |
| < 10 | COc1cc(Nc2nc3n(n2)CCC2(CC3c3ccc(F)cc3)OCCO2)ccc1-n1cnc(Cl)c1 (centres unmarked) [Example 144, N-(4-(4-chloro-1H-imidazol-1-yl)-3-methoxyphenyl)-9-(4-fluorophenyl)-5,6,8,9-tetrahydrospiro[[1,2,4]triazolo[1,5-a]azepine-7,2′-[1,3]dioxolan]-2-amine 2,2,2-trifluoroacetate] |
| 10 to 100 | COc1cc(Nc2nc3n(n2)CCCC[C@@H]3c2ccc(OC(C)C)cc2)ccc1-n1cnc(Cl)c1 (single isomer, unassigned) [Example 104] |
| < 10 | COc1cc(Nc2nc3n(n2)CCCCC3c2ccc(Cl)cc2Cl)ccc1-n1cnc(Cl)c1 (centres unmarked) [Example 19, N-(4-(4-chloro-1H-imidazol-1-yl)-3-methoxyphenyl)-9-(2,4-dichlorophenyl)-6,7,8,9-tetrahydro-5H-[1,2,4]triazolo azepin-2-amine 2,2,2-trifluoroacetate] |
| 10 to 100 | COc1cc(Nc2nc3n(n2)CCCC[C@@H]3c2cc(F)cc(F)c2)ccc1-n1cnc(Cl)c1 (single isomer, unassigned) [Example 40] |
| 10 to 100 | Cc1ncnn1-c1ccc(Nc2nc3n(n2)CCCCC3c2ccc(OCC(F)(F)F)cc2)cc1F (centres unmarked) [Example 110, N-(3-fluoro-4-(5-methyl-1H-1,2,4-triazol-1-yl)phenyl)-9-(4-(2,2,2-trifluoroethoxy)phenyl)-6,7,8,9-tetrahydro-5H-[1,2,4]triazolo[1,5-a]azepin-2-amine] |
| 10 to 100 | COc1cc(Nc2nc3n(n2)CCCCC3c2ccc(OC(F)F)cc2)ccc1-n1cnc(C)n1 (centres unmarked) [Example 127, 9-(4-(difluoromethoxy)phenyl)-N-(3-methoxy-4-(3-methyl-1H-1,2,4-triazol-1-yl)phenyl)-6,7,8,9-tetrahydro-5H-[1,2,4]triazolo[1,5-a]azepin-2-amine 2,2,2-trifluoroacetate] |
| 10 to 100 | C=C1CCn2nc(Nc3ccc(-n4cnc(Cl)c4)c(OC)c3)nc2C(c2ccc(F)cc2)C1 (centres unmarked) [Example 133, N-(4-(4-chloro-1H-imidazol-1-yl)-3-methoxyphenyl)-9-(4-fluorophenyl)-7-methylene-6,7,8,9-tetrahydro-5H-[1,2,4]triazolo[1,5-a]azepin-2-amine 2,2,2-trifluoroacetate] |
| < 10 | Cc1ncnn1-c1ccc(Nc2nc3n(n2)CCCCC3c2ccc(OC(F)(F)F)c(F)c2)cc1F (centres unmarked) [Example 160, N-(3-fluoro-4-(5-methyl-1H-1,2,4-triazol-1-yl)phenyl)-9-(3-fluoro-4-(trifluoromethoxy)phenyl)-6,7,8,9-tetrahydro-5H-[1,2,4]triazolo[1,5-a]azepin-2-amine] |
| 10 to 100 | Cc1ncnn1-c1ccc(Nc2nc3n(n2)CCCCC3c2ccc(OCC(F)F)cc2)cc1F (centres unmarked) [Example 119, 9-(4-(2,2-difluoroethoxy)phenyl)-N-(3-fluoro-4-(5-methyl-1H-1,2,4-triazol-1-yl)phenyl)-6,7,8,9-tetrahydro-5H-[1,2,4]triazolo[1,5-a]azepin-2-amine] |
| < 10 | COc1cc(Nc2nc3n(n2)C[C@H](F)[C@H](F)C[C@H]3c2ccc(F)cc2)ccc1-n1cnc(Cl)c1 (relative stereo) [Example 91, rel-(6S,7R,9S)—N-(4-(4-chloro-1H-imidazol-1-yl)-3-methoxyphenyl)-6,7-difluoro-9-(4-fluorophenyl)-6,7,8,9-tetrahydro-5H-[1,2,4]triazolo[1,5-a]azepin-2-amine 2,2,2-trifluoroacetate] |
| 10 to 100 | COc1cc(Nc2nc3n(n2)C(c2ccc(F)cc2)CCC3)ccc1-n1cnc(Cl)c1 (centres unmarked) [Example 89, N-(4-(4-chloro-1H-imidazol-1-yl)-3-methoxyphenyl)-5-(4-fluorophenyl)-5,6,7,8-tetrahydro-[1,2,4]triazolo[1,5-a]pyridin-2-amine 2,2,2-trifluoroacetate] |
| 10 to 100 | COc1cc(Nc2nc3n(n2)CCC(F)(F)CC3c2ccc(F)cc2)ccc1-n1cnc(Cl)c1 (centres unmarked) [Example 139, N-(4-(4-chloro-1H-imidazol-1-yl)-3-methoxyphenyl)-7,7-difluoro-9-(4-fluorophenyl)-6,7,8,9-tetrahydro-5H-[1,2,4]triazolo[1,5-a]azepin-2-amine 2,2,2-trifluoroacetate] |
| 10 to 100 | Cc1ncn(-c2ccc(Nc3nc4n(n3)CCCC[C@H]4c3ccc(F)cc3)cc2F)n1 (single isomer, unassigned) [Example 26] |
| < 10 | Cc1ncn(-c2ccc(Nc3nc4n(n3)CCCC[C@@H]4c3ccc(OC(F)(F)F)c(F)c3)cc2F)n1 (single isomer, unassigned) [Example 166] |
| < 10 | COc1cc(Nc2nc3n(n2)CCCC[C@H]3c2cccc(Cl)c2)ccc1-n1cnc(Cl)c1 (single isomer, unassigned) [Example 54] |
| < 10 | Cc1ncn(-c2ccc(Nc3nc4n(n3)CCCCC4c3ccc(OC(F)(F)F)cc3)cc2F)n1 (centres unmarked) [Example 96, N-(3-fluoro-4-(3-methyl-1H-1,2,4-triazol-1-yl)phenyl)-9-(4-(trifluoromethoxy)phenyl)-6,7,8,9-tetrahydro-5H-[1,2,4]triazolo[1,5-a]azepin-2-amine] |
| 100 to 1000 | Cc1ncnn1-c1ccc(Nc2nc3n(n2)CCCC[C@@H]3c2ccc(OCC(F)F)cc2)cc1F (single isomer, unassigned) [Example 121] |
| 100 to 1000 | COc1cc(Nc2nc3n(n2)CCCCC3c2ccc(-n3ccnc3)cc2)ccc1-n1cnc(Cl)c1 (centres unmarked) [Example 173, 9-(4-(1H-imidazol-1-yl)phenyl)-N-(4-(4-chloro-1H-imidazol-1-yl)-3-methoxyphenyl)-6,7,8,9-tetrahydro-5H-[1,2,4]triazolo[1,5-a]azepin-2-amine 2,2,2-trifluoroacetate] |
| 10 to 100 | Cc1ncn(-c2ccc(Nc3nc4n(n3)CCCC[C@H]4c3ccc(OCC(F)(F)F)cc3)cc2F)n1 (single isomer, unassigned) [Example 114] |
| < 10 | COc1cc(Nc2nc3n(n2)CCCCC3c2ccc(F)cc2F)ccc1-n1cnc(Cl)c1 (centres unmarked) [Example 35, N-(4-(4-chloro-1H-imidazol-1-yl)-3-methoxyphenyl)-9-(2,4-difluorophenyl)-6,7,8,9-tetrahydro-5H-[1,2,4]triazolo[1,5-a]azepin-2-amine 2,2,2-trifluoroacetate] |
| 10 to 100 | COc1cc(Nc2nc3n(n2)CC=CCC3c2ccc(Cl)cc2Cl)ccc1-n1cnc(Cl)c1 (centres unmarked) [Example 8, (Z)—N-(4-(4-chloro-1H-imidazol-1-yl)-3-methoxyphenyl)-9-(2,4-dichlorophenyl)-8,9-dihydro-5H-[1,2,4]triazolo[1,5-a]azepin-2-amine] |
| 10 to 100 | COc1cc(Nc2nc3n(n2)CCCC[C@@H]3c2cccc(F)c2)ccc1-n1cnc(Cl)c1 (single isomer, unassigned) [Example 46] |
| 10 to 100 | CCOc1ccc(C2CCCCn3nc(Nc4ccc(-n5cnc(C)n5)c(OC)c4)nc32)cc1 (centres unmarked) [Example 132, 9-(4-ethoxyphenyl)-N-(3-methoxy-4-(3-methyl-1H-1,2,4-triazol-1-yl)phenyl)-6,7,8,9-tetrahydro-5H-[1,2,4]triazolo[1,5-a]azepin-2-amine 2,2,2-trifluoroacetate] |
| 10 to 100 | COc1cc(Nc2nc3n(n2)CCCCC3c2ccc(F)cc2)ccc1-n1cnc(C(F)F)c1 (centres unmarked) [Example 43, N-(4-(4-(difluoromethyl)-1H-imidazol-1-yl)-3-methoxyphenyl)-9-(4-fluorophenyl)-6,7,8,9-tetrahydro-5H-[1,2,4]triazolo[1,5-a]azepin-2-amine 2,2,2-trifluoroacetate] |
